Data set [1] has as its system EAE in female C57BL/6J mice. Description: EAE in female C57BL/6J mice, calcitonin and Vit D, Example 4. The settings on record: for Incidence: vehicle pump, animals sick/total. In kind it is in vivo. On the procedure: To determine the effect of calcitonin and Vit D on EAE in C57BL/6J mice, female C57BL/6J mice were maintained on standard chow until eight weeks of age, and then switched to a purified diet containing 0.87% calcium supplemented with 1 ng or 30 ng of 1,25-(OH)2D3 for one week prior to EAE immunization.
EAE was induced as described above. Mice were injected with 200 ng of B. pertussis toxin on the day of immunization and 48 hours later.
sCT was prepared as described above. One week after immunization, mice were weighed and the pumps were filled with vehicle or 30 μg/kg per day of sCT of body weight to each mouse. The pumps were surgically placed subcutaneously in the upper back of mice anesthetized with 2% isofluorane. At the end of the study, successful delivery of the sCT was assessed by two methods. First, the fluid volume remaining in the pump reservoirs was measured. Second, the remaining sCT was pooled and intraperitoneally injected into C57BL/6J mice that were not included in the initial study. Serum calcium measurements were taken six hours after injection to determine if sCT maintained its bioactivity throughout the study.
Mice were examined daily, for over two weeks, for clinical signs of EAE utilizing the following scoring system as described above.
(§1) Blood samples were collected at multiple time-points and prepared and analyzed as described above. Likewise, statistical analysis was performed as noted above.

The nature of data set [2]: Serum calcium in female C57BL/6J mice, Example 4. In kind it is in vivo. The conditions noted are these: 30 ng Vit D (regardless of whether sCT was provided) compared to 1 ng Vit D. The method, then:
Collected blood samples were centrifuged at 6000 rpm for 15 minutes; followed by another 60-second spin at 14000 rpm. Serum samples were diluted in 0.1% LaCl3 and serum calcium values were measured using a Perkin Elmer atomic absorption spectrometer.
as §1

Setting [3] is: female C57BL/6J, 0.87% calcium diet with 1 ng Vit D.
Setting [4] is: female C57BL/6J, 0.87% calcium diet with 30 ng Vit D.

The structures appear in SMILES notation.

This is an account of results in patent US7745404B2, “Use of calcitonin and calcitonin-like peptides to treat and prevent multiple sclerosis” (Wisconsin Alumni Research Foundation, priority 2002, dated 2010).

Turning to `C=C1/C(=C\C=C2/CCC[C@]3(C)[C@@H]([C@H](C)CCCC(C)(C)O)CC[C@@H]23)C[C@@H](O)C[C@@H]1O` [Vit D, 1α,25-dihydroxyvitamin D3], the EAE score result in data set [1] (female C57BL6J mice, 30 ng Vit D, compared to 1 ng Vit D alone (FIG. 5, Table 6)) was “delayed and diminished the EAE score”. Also, in data set [1] (setting [3]), the “% Sick” value was determined as 67.0% and the Incidence is listed as 6/9 sick. Moreover, the Severity in data set [1] (female C57BL/6J, 0.87% calcium diet with 1 ng Vit D, EAE score 0-5) is reported as 2.9 ± 0.9. Moreover, the “Mean Onset Day” value in data set [1] (female C57BL/6J, 0.87% calcium diet with 1 ng Vit D, days post immunization) is 15 ± 2 days. In data set [1] (setting [4]), the “% Sick” value turned out to be 0.0% and the Incidence is given as 0/8 sick. In addition, the serum calcium levels result in data set [2] is “elevated”.
